For experiment [1], the target named is T1, AtPmtAΔN25 (Agrobacterium fabrum, UniProt A9CKE9).
T1 construct: gene Atu0300; lacks residues 1-25 (N-terminal amphipathic helix); N-terminal His6-tag cut with HRV 3C protease; expressed in E. coli C43(DE3); full length 197 residues; four molecules in the asymmetric unit
T1 sequence (A9CKE9 26-197): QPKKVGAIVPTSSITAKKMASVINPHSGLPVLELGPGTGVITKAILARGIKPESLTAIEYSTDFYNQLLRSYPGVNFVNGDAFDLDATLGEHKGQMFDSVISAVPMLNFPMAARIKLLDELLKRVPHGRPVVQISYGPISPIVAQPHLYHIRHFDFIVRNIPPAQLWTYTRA
The experiment in a line: X-ray crystal structure ([…] Å). It is filed as binding. The conditions noted are these: cocrystallised with SAM at 10:1 ligand-to-protein, pH 8.0, 20 °C; density assigned to MTA as SAM cleavage product; SAM site.

Experiment [2] has as its target T1, AtPmtAΔN25. In words: X-ray crystal structure ([…] Å) and 1H-15N HSQC NMR titration. The experiment is classed as binding. The conditions noted are these: cocrystallised at 10:1 ligand-to-protein, pH 8.0, 20 °C; NMR titration 0-10 equivalents, pH 7.0, 10 °C; SAM site (Gly-rich loop).

For the compound `CSC[C@H]1O[C@@H](n2cnc3c(N)ncnc32)[C@H](O)[C@@H]1O` [5′-methylthioadenosine], the “X-ray crystal structure (2.04 Å)” value at AtPmtAΔN25 [1] is “Therefore, we assigned the electron density to MTA”.

Turning to `Nc1ncnc2c1ncn2[C@@H]1O[C@H](CSCC[C@H](N)C(=O)O)[C@@H](O)[C@H]1O` [SAH], the “X-ray crystal structure (1.95 Å) and 1H-15N HSQC NMR titration” value on AtPmtAΔN25 [2] was “All four AtPmtAΔN25 molecules in the asymmetric unit contained SAH molecules with clear electron densities”.

The values above are taken from paper PMC12139422, “Structural basis for phosphatidylcholine synthesis by bacterial phospholipid N-methyltransferases” (The Journal of Biological Chemistry, 2025).
